Measurements: the NIST ThermoML archive (doi:10.1021/je200668a)
Values joined by “and” are separate entries in the source; they are usually repeats but may differ in a detail not shown here. Equal entries are not always repeated.

Settings: Liquid, Pulse Transmission

O [water]
Settings	speed of sound
252.47 K, 215100 kPa	1715.3 m/s
252.47 K, 220000 kPa	1725.1 m/s
252.5 K, 205200 kPa	1695.9 m/s
252.5 K, 209900 kPa	1705.2 m/s
252.5 K, 215300 kPa	1716.8 m/s
252.5 K, 240000 kPa	1764.3 m/s
252.51 K, 220200 kPa	1726.7 m/s
252.51 K, 235100 kPa	1754.9 m/s
252.51 K, 245400 kPa	1774.8 m/s
252.52 K, 210100 kPa	1705.8 m/s and 1706 m/s
252.52 K, 244900 kPa	1773.9 m/s
252.53 K, 200100 kPa	1685.4 m/s
252.53 K, 204800 kPa	1695.3 m/s
252.53 K, 215300 kPa	1716.3 m/s
252.53 K, 225100 kPa	1735.1 m/s
252.53 K, 230000 kPa	1745 m/s and 1745.4 m/s
252.53 K, 240100 kPa	1764.5 m/s
252.54 K, 235200 kPa	1755.1 m/s
252.54 K, 239200 kPa	1762.7 m/s
252.54 K, 245000 kPa	1774.1 m/s
252.55 K, 225000 kPa	1736.1 m/s
252.56 K, 204900 kPa	1695.4 m/s
252.57 K, 198900 kPa	1683.1 m/s
252.57 K, 199400 kPa	1684.1 m/s
252.57 K, 229900 kPa	1744.6 m/s
252.57 K, 235200 kPa	1754.8 m/s
252.59 K, 225100 kPa	1735.8 m/s
252.61 K, 220300 kPa	1726.3 m/s
257.59 K, 225300 kPa	1755 m/s
257.6 K, 175100 kPa	1654.5 m/s
257.61 K, 199500 kPa	1703.9 m/s
257.61 K, 275200 kPa	1847.7 m/s
257.62 K, 274400 kPa	1845.4 m/s
257.64 K, 250200 kPa	1801.3 m/s
257.65 K, 224100 kPa	1752.6 m/s
257.65 K, 276100 kPa	1848.6 m/s
257.66 K, 199900 kPa	1705.5 m/s
257.66 K, 299900 kPa	1889.6 m/s
257.67 K, 249400 kPa	1799.8 m/s
257.67 K, 299700 kPa	1889.4 m/s
257.67 K, 300200 kPa	1890.9 m/s
257.67 K, 374600 kPa	2011.2 m/s
257.68 K, 325400 kPa	1932.5 m/s
257.68 K, 375300 kPa	2012.5 m/s
257.69 K, 176400 kPa	1657.4 m/s
257.69 K, 199600 kPa	1704.5 m/s
257.69 K, 249500 kPa	1800.5 m/s
257.69 K, 349300 kPa	1972.1 m/s
257.69 K, 350000 kPa	1972.9 m/s
257.7 K, 176200 kPa	1657.4 m/s
257.7 K, 224600 kPa	1754 m/s
257.7 K, 325000 kPa	1928.5 m/s
257.7 K, 325400 kPa	1932.5 m/s
262.63 K, 299800 kPa	1906 m/s
262.65 K, 224800 kPa	1771.8 m/s
262.68 K, 250600 kPa	1820.4 m/s
262.71 K, 324500 kPa	1944.4 m/s
262.71 K, 349400 kPa	1982.7 m/s
262.71 K, 399900 kPa	2060 m/s
262.72 K, 274600 kPa	1861.2 m/s
262.72 K, 374300 kPa	2023.2 m/s
262.72 K, 424300 kPa	2095.3 m/s
262.73 K, 249700 kPa	1816.5 m/s
262.73 K, 299400 kPa	1903.1 m/s
262.73 K, 324600 kPa	1945.1 m/s
262.73 K, 349600 kPa	1984.2 m/s
262.74 K, 124100 kPa	1574.1 m/s
262.74 K, 199800 kPa	1725.4 m/s
262.74 K, 299600 kPa	1903.2 m/s
262.74 K, 425600 kPa	2097.8 m/s
262.74 K, 449400 kPa	2130.8 m/s
262.74 K, 450500 kPa	2133 m/s
262.75 K, 274500 kPa	1860.6 m/s
262.76 K, 148400 kPa	1623.4 m/s
262.76 K, 150700 kPa	1629.8 m/s
262.76 K, 199800 kPa	1724.8 m/s
262.76 K, 224600 kPa	1772.3 m/s
262.76 K, 251000 kPa	1819.5 m/s
262.76 K, 350600 kPa	1986.4 m/s
262.76 K, 375100 kPa	2023 m/s
262.76 K, 399300 kPa	2058.1 m/s
262.77 K, 126300 kPa	1578.6 m/s
262.77 K, 174800 kPa	1677.2 m/s and 1676.9 m/s
262.78 K, 399700 kPa	2061.2 m/s
262.81 K, 149800 kPa	1626.1 m/s
262.81 K, 200800 kPa	1728.7 m/s
267.77 K, 199500 kPa	1744.1 m/s
267.78 K, 100800 kPa	1554.9 m/s
267.78 K, 300400 kPa	1918.4 m/s
267.78 K, 349700 kPa	1997.2 m/s
267.79 K, 149600 kPa	1649.8 m/s and 1648.8 m/s
267.79 K, 399600 kPa	2070.9 m/s
267.79 K, 500400 kPa	2208.8 m/s
267.8 K, 249400 kPa	1833.6 m/s
267.8 K, 449300 kPa	2141.5 m/s
267.81 K, 98500 kPa	1551.2 m/s
267.82 K, 400000 kPa	2071.6 m/s
267.84 K, 100500 kPa	1554.9 m/s
267.84 K, 199500 kPa	1744.6 m/s
267.84 K, 450700 kPa	2144.1 m/s
267.84 K, 500100 kPa	2209.7 m/s
267.85 K, 299400 kPa	1918.6 m/s
267.86 K, 399700 kPa	2071.2 m/s
267.87 K, 249600 kPa	1835 m/s
267.87 K, 251100 kPa	1837.5 m/s
267.87 K, 349700 kPa	1997.5 m/s
267.87 K, 449200 kPa	2142.4 m/s
267.88 K, 150800 kPa	1652.5 m/s
267.88 K, 299600 kPa	1919.3 m/s
267.88 K, 349500 kPa	1996.1 m/s
267.89 K, 199900 kPa	1745.2 m/s
273.01 K, 49300 kPa	1483.9 m/s
273.02 K, 200500 kPa	1762.6 m/s
273.03 K, 50300 kPa	1485.7 m/s
273.05 K, 100 kPa	1399.3 m/s
273.07 K, 49200 kPa	1484 m/s
273.07 K, 499800 kPa	2214.4 m/s
273.08 K, 200700 kPa	1763.5 m/s
273.08 K, 300600 kPa	1930.8 m/s
273.08 K, 399700 kPa	2080.1 m/s
273.09 K, 100 kPa	1399.8 m/s
273.09 K, 100000 kPa	1578.3 m/s
273.09 K, 150200 kPa	1671.7 m/s
273.09 K, 150400 kPa	1671.6 m/s
273.09 K, 349400 kPa	2006.9 m/s
273.1 K, 100 kPa	1398.7 m/s
273.1 K, 100500 kPa	1579.6 m/s
273.1 K, 250700 kPa	1849 m/s
273.1 K, 350400 kPa	2009 m/s
273.1 K, 450500 kPa	2150.3 m/s
273.1 K, 500400 kPa	2215.2 m/s
273.1 K, 550500 kPa	2281.3 m/s
273.1 K, 602100 kPa	2345.3 m/s
273.11 K, 200300 kPa	1762.7 m/s
273.11 K, 250300 kPa	1848.4 m/s
273.11 K, 250600 kPa	1848.7 m/s
273.11 K, 299900 kPa	1929.5 m/s
273.11 K, 550200 kPa	2281.4 m/s
273.12 K, 300000 kPa	1929.7 m/s
273.12 K, 399600 kPa	2079.5 m/s
273.12 K, 401000 kPa	2081.2 m/s
273.12 K, 449300 kPa	2149.5 m/s
273.12 K, 450200 kPa	2149.8 m/s
273.12 K, 550300 kPa	2276.8 m/s
273.12 K, 599500 kPa	2342 m/s
273.13 K, 150200 kPa	1672.1 m/s
273.13 K, 349700 kPa	2007 m/s
273.13 K, 499900 kPa	2214.6 m/s
273.18 K, 99800 kPa	1577.5 m/s
278.05 K, 100 kPa	1425.1 m/s
278.05 K, 500300 kPa	2220.9 m/s
278.07 K, 349300 kPa	2013.6 m/s
278.08 K, 200300 kPa	1775.7 m/s
278.08 K, 349600 kPa	2014.7 m/s
278.08 K, 400000 kPa	2086.4 m/s
278.08 K, 450900 kPa	2156.9 m/s
278.08 K, 602100 kPa	2346.8 m/s
278.09 K, 49200 kPa	1507.3 m/s
278.09 K, 400000 kPa	2087.5 m/s
278.09 K, 449700 kPa	2155.5 m/s
278.09 K, 500500 kPa	2221.3 m/s
278.09 K, 550800 kPa	2286.8 m/s
278.09 K, 700200 kPa	2439.8 m/s
278.1 K, 299900 kPa	1938.9 m/s
278.1 K, 400500 kPa	2089.8 m/s
278.1 K, 500400 kPa	2223.3 m/s
278.11 K, 561500 kPa	2297.2 m/s
278.11 K, 640200 kPa	2390.8 m/s
278.12 K, 200800 kPa	1777.1 m/s
278.12 K, 250200 kPa	1858.4 m/s
278.12 K, 299900 kPa	1939.6 m/s
278.12 K, 450800 kPa	2157.8 m/s
278.12 K, 600700 kPa	2347.6 m/s
278.12 K, 650000 kPa	2402.2 m/s
278.13 K, 48300 kPa	1506 m/s
278.13 K, 150100 kPa	1688.3 m/s
278.13 K, 200100 kPa	1776.7 m/s
278.13 K, 250100 kPa	1859.7 m/s
278.13 K, 250600 kPa	1859.7 m/s
278.13 K, 550600 kPa	2284.7 m/s
278.14 K, 150100 kPa	1689.2 m/s
278.15 K, 100 kPa	1424.8 m/s
278.15 K, 99600 kPa	1597.6 m/s
278.16 K, 99900 kPa	1599.9 m/s
278.16 K, 300500 kPa	1940 m/s
278.17 K, 349800 kPa	2017.6 m/s
278.17 K, 599300 kPa	2344.6 m/s
278.17 K, 651900 kPa	2402.7 m/s
278.17 K, 701300 kPa	2451 m/s
278.19 K, 109200 kPa	1614.9 m/s
278.19 K, 159900 kPa	1705.3 m/s
278.19 K, 700600 kPa	2446.5 m/s
278.24 K, 100 kPa	1425.6 m/s
288 K, 450300 kPa	2162.1 m/s
288.07 K, 300700 kPa	1953.9 m/s
288.07 K, 600900 kPa	2346.8 m/s
288.08 K, 100 kPa	1463.4 m/s
288.08 K, 50800 kPa	1549.6 m/s
288.08 K, 149800 kPa	1717.5 m/s
288.08 K, 250500 kPa	1878.9 m/s
288.08 K, 350800 kPa	2026.4 m/s
288.08 K, 400300 kPa	2094.6 m/s
288.08 K, 699800 kPa	2453.6 m/s
288.09 K, 50900 kPa	1549.8 m/s
288.09 K, 110900 kPa	1650.2 m/s
288.09 K, 160100 kPa	1733.4 m/s
288.09 K, 349600 kPa	2026.1 m/s
288.09 K, 599500 kPa	2345.8 m/s
288.1 K, 499500 kPa	2226.5 m/s
288.1 K, 499700 kPa	2225.7 m/s
288.11 K, 100 kPa	1461.4 m/s
288.11 K, 200800 kPa	1799.7 m/s
288.11 K, 299800 kPa	1952.9 m/s
288.11 K, 599900 kPa	2344.8 m/s
288.11 K, 700800 kPa	2455.2 m/s
288.12 K, 200300 kPa	1800.1 m/s
288.12 K, 250000 kPa	1878.5 m/s
288.12 K, 399800 kPa	2094.8 m/s
288.13 K, 100 kPa	1462.4 m/s
